Consider 20 compounds from ChEMBL document CHEMBL1138200, “Dihydropyrrolopyrazole transforming growth factor-beta type I receptor kinase domain inhibitors: a novel benzimidazole series with selectivity versus transforming growth factor-beta type II receptor kinase and mixed lineage kinase-7” (J Med Chem, 2006).

In assay [1] the target is T1, TGF-beta receptor type-1 (Homo sapiens, UniProt P36897).
T1 sequence (P36897 whole entry): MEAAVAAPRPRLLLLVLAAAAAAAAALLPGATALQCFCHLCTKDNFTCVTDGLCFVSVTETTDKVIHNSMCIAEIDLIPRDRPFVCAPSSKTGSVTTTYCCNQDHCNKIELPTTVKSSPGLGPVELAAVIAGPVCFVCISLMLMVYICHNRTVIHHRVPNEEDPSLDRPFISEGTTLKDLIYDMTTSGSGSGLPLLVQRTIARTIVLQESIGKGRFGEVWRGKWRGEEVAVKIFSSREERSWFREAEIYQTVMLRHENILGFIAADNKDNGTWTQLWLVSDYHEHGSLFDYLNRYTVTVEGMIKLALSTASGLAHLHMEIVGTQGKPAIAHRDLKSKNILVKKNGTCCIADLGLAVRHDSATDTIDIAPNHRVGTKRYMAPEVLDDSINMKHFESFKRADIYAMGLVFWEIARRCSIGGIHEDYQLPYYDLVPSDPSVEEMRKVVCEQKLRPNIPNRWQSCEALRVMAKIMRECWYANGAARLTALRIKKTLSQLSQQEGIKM
Nature of the assay: Inhibition of TGFbeta R1 induced transcriptional activation of p3TP-Lux in mink Mv1Lu lung cells. The assay is classed as functional, cell-based, Mustela.

The target in assay [2] is T1, TGF-beta receptor type-1. Nature of the assay: Inhibition of recombinant human TGFbeta R1 expressed in Sf9 cells.
Assay [3] deals with TGF-beta receptor type-2 (Homo sapiens, UniProt P37173). Nature of the assay: Inhibition of recombinant human TGFbeta R2 expressed in Sf9 cells.
Assay [4] deals with Mitogen-activated protein kinase kinase kinase 20 (Homo sapiens, UniProt Q9NYL2). Nature of the assay: Inhibition of MLK7.
Assay [5] can be described thus: Inhibitory activity against TGF-beta-stimulated proliferation in NIH3T3 cells. The class given is functional, cell-based. As to conditions: Mus musculus.
The target in assay [6] is Cytochrome P450 2D6 (Homo sapiens, UniProt P10635). Nature of the assay: Inhibition of cytochrome P450 2D6. The assay is classed as ADME.

SMILES strings stand for the structures. Where only a bound is given, the exact number is not on record here.

Sequence of Mitogen-activated protein kinase kinase kinase 20 (Q9NYL2 whole entry): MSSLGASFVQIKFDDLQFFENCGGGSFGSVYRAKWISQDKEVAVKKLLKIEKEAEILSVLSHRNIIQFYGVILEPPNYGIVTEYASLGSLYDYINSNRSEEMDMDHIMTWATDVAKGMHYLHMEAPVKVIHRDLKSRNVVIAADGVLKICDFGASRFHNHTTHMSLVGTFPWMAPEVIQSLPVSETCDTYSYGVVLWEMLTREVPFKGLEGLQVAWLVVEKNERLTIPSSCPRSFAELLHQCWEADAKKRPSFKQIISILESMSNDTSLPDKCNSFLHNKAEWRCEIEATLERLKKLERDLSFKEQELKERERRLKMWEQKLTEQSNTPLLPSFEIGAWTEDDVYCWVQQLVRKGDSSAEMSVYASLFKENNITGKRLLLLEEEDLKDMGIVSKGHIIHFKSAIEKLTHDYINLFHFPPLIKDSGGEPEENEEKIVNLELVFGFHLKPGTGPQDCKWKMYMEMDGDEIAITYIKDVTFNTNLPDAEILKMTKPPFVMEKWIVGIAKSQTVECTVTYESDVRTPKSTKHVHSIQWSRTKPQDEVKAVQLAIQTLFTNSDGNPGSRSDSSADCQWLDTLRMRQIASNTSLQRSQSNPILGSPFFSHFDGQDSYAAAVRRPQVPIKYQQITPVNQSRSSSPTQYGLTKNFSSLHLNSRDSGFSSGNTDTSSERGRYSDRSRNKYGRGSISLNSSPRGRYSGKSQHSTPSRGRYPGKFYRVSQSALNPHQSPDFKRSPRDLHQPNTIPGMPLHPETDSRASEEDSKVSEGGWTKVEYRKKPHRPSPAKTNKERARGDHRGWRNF
Sequence of TGF-beta receptor type-2 (P37173 whole entry): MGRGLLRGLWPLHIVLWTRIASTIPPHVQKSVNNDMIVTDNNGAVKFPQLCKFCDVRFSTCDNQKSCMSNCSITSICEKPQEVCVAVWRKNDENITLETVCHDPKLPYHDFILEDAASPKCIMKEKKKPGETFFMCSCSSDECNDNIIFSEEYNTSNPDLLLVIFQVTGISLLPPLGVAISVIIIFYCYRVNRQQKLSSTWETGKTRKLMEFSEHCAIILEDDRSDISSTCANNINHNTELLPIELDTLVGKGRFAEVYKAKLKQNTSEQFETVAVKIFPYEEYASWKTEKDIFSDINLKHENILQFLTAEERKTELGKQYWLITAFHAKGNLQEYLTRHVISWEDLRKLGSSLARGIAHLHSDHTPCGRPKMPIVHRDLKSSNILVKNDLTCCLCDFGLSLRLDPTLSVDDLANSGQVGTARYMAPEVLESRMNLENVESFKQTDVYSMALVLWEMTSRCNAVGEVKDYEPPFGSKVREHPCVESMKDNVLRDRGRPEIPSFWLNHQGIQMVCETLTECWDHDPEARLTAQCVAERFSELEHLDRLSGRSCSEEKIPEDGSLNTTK
Sequence of Cytochrome P450 2D6 (P10635 whole entry): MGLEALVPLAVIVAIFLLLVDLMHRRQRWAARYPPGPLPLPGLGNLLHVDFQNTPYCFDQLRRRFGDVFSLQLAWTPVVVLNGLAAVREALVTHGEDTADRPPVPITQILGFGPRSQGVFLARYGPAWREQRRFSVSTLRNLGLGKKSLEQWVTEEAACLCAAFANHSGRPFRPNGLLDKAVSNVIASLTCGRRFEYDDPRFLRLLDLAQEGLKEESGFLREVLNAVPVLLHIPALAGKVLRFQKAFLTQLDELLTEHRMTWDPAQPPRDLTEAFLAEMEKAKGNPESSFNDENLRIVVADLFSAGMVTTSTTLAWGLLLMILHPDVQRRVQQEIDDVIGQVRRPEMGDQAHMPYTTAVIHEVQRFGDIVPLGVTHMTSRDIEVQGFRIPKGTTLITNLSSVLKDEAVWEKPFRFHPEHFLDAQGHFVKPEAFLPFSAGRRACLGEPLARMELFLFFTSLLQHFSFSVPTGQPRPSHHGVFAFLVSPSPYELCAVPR

For orientation: IC50 means the concentration that inhibits the measured activity by half. `Cc1cccc(-c2nn3c(c2-c2ccc4c(c2)ncn4CCCOC2CCCCO2)CCC3)n1` (stereo not drawn): the IC50 was 2430 nM in assay [1], 1830 nM in assay [2], 14500 nM in assay [3] and above 20000 nM in assay [4].

With `CN(C)CCCn1cnc2ccc(-c3c(-c4ccccn4)nn4c3CCC4)cc21`, the IC50 in assay [1] is 104 nM; in assay [2], 398 nM; in assay [3], above 20000 nM; in assay [4], 15900 nM; in assay [5], 1000 nM.

On to `Cn1cnc2cc(-c3c(-c4ccccn4)nn4c3CCC4)ccc21`, for which the IC50 in assay [1] was 1370 nM; in assay [2], 4740 nM; in assay [3], 19600 nM; in assay [4] it was above 20000 nM; in assay [5] it was 1620 nM.

For `OCCCn1cnc2ccc(-c3c(-c4ccccn4)nn4c3CCC4)cc21`, the IC50 stood at 79 nM in assay [1]; 79 nM in assay [2]; 352 nM in assay [3]; 708 nM in assay [4]; 371 nM in assay [5].

As to `CCN(CC)CCCn1cnc2ccc(-c3c(-c4cccc(C)n4)nn4c3CCC4)cc21`, the 50% inhibitory concentration (IC50) in assay [1] is 100 nM; in assay [2], 122 nM; in assay [3], above 20000 nM; in assay [4] it was above 20000 nM; in assay [5], 274 nM.

Consider `c1ccc(-c2nn3c(c2-c2ccc4[nH]ccc4c2)CCC3)nc1`, for which the half-inhibitory concentration (IC50) in assay [2], in assay [3] and in assay [4] was above 20000 nM in each case.

On to `Cc1cccc(-c2nn3c(c2-c2ccc4ncn(CCCO)c4c2)CCC3)n1`, for which the IC50 in assay [1] was found to be 78 nM; in assay [2], 41 nM; in assay [3], 690 nM; in assay [4], 2810 nM; in assay [5], 371 nM.

For the compound `c1ccc(-c2nn3c(c2-c2ccc4[nH]cnc4c2)CCC3)nc1`, the half-maximal inhibitory concentration (IC50) in assay [3] stood at 8730 nM.

Consider `c1ccc(-c2nn3c(c2-c2ccc4c(c2)ncn4CCCOC2CCCCO2)CCC3)nc1` (stereo not drawn), for which the IC50 in assay [1] was 5890 nM; in assay [2], 6580 nM; in assay [3], above 20000 nM; in assay [4], above 20000 nM; in assay [5] it was 4700 nM.

Regarding `Cn1cnc2ccc(-c3c(-c4ccccn4)nn4c3CCC4)cc21`, the IC50 in assay [1] came to 8 nM; in assay [2] it was 75 nM; in assay [3] it was 395 nM; in assay [4], 1310 nM; in assay [5], 32 nM.

In the case of `Cc1cccc(-c2nn3c(c2-c2ccc4ncn(C)c4c2)CCC3)n1`, the IC50 was determined as 29 nM in assay [1]; 22 nM in assay [2]; 668 nM in assay [3]; 2340 nM in assay [4]; 96 nM in assay [5].

With `Cc1cccc(-c2nn3c(c2-c2ccc4ncn(CCCN5CCCC5)c4c2)CCC3)n1`, the IC50 is 117 nM in assay [1]; 74 nM in assay [2]; above 20000 nM in assay [3]; above 20000 nM in assay [4]; 249 nM in assay [5].

On to `c1ccc(-c2n[nH]cc2-c2ccnc3ccccc23)nc1`, for which the IC50 in assay [3] was found to be 400 nM; in assay [4], 1400 nM; in assay [5], 81 nM.

`Cc1cccc(-c2nn3c(c2-c2ccc4ncn(CCCN5CCCCC5)c4c2)CCC3)n1`: the 50% inhibitory concentration (IC50) in assay [1] was 51 nM; in assay [2], 155 nM; in assay [3], above 20000 nM; in assay [4], above 20000 nM; in assay [5] it was 150 nM.

Consider `Cc1cccc(-c2nn3c(c2-c2ccc4c(ccn4C)c2)CCC3)n1`, for which the IC50 was 4100 nM in assay [2], above 20000 nM in assay [3] and above 20000 nM in assay [4].

With `c1ccc(-c2nn3c(c2-c2ccc4ncn(CCCN5CCCC5)c4c2)CCC3)nc1`, the IC50 in assay [1] was 226 nM; in assay [2] it was 246 nM; in assay [3], 10800 nM; in assay [4], 4880 nM; in assay [5], 854 nM.

Take `Cc1cccc(-c2nn3c(c2-c2ccc4ncn(CCCN5CCOCC5)c4c2)CCC3)n1`: the IC50 was 186 nM in assay [1]; 69 nM in assay [2]; 19800 nM in assay [3]; 8480 nM in assay [4]; 277 nM in assay [5].

As for `Cc1cccc(-c2nn3c(c2-c2ccc4nc[nH]c4c2)CCC3)n1`, the IC50 in assay [1] was 15 nM; in assay [2], 47 nM; in assay [3], 1300 nM; in assay [4], 15900 nM; in assay [6], 27000 nM; in assay [5], 42 nM.

For the compound `Cn1ccc2cc(-c3c(-c4ccccn4)nn4c3CCC4)ccc21`, the IC50 in assay [2] is 12200 nM; in assay [3], above 20000 nM; in assay [4], 16600 nM.

Consider `Cc1cccc(-c2nn3c(c2-c2ccc4ncn(CCCN(C)C)c4c2)CCC3)n1`, for which the concentration for half-maximal inhibition (IC50) in assay [1] is 53 nM; in assay [2] it was 85 nM; in assay [3] it was above 20000 nM; in assay [4] it was above 20000 nM; in assay [5] it was 139 nM.
